Values after ≈ are worked out from the molar mass of the structure shown. Like-named read-outs stand apart in the source and are kept apart here.
Legend:
rhinovirus HGP = assay: Inhibition of viral cytopathogenic effect in HeLa cells (rhinovirus HGP); type: cell-based; conditions: Enterovirus, HeLa, 48 h, read-out: IC50 rhinovirus HGP
Coxsackie virus B1 [1] = assay: Inhibition of viral cytopathogenic effect in HeLa cells (Coxsackie virus B1); type: cell-based; conditions: for IC50: HeLa, 24 h, read-out: IC50 Coxsackie virus B1; for MIC: read-out: Minimum inhibitory concentration
rhinovirus type 1A = assay: in vitro antiviral spectrum; type: cell-based; conditions: Enterovirus, read-out: Minimum inhibitory concentration
rhinovirus type 2 = assay: in vitro antiviral spectrum; type: cell-based; conditions: Enterovirus, read-out: Minimum inhibitory concentration
rhinovirus type 3 = assay: in vitro antiviral spectrum; type: cell-based; conditions: Enterovirus, read-out: Minimum inhibitory concentration
rhinovirus type 4 = assay: in vitro antiviral spectrum; type: cell-based; conditions: Enterovirus, read-out: Minimum inhibitory concentration
rhinovirus type 9 = assay: in vitro antiviral spectrum; type: cell-based; conditions: Enterovirus, read-out: Minimum inhibitory concentration
rhinovirus type 13 = assay: in vitro antiviral spectrum; type: cell-based; conditions: Enterovirus, read-out: Minimum inhibitory concentration
rhinovirus type 14 = assay: in vitro antiviral spectrum; type: cell-based; conditions: Enterovirus, read-out: Minimum inhibitory concentration
rhinovirus type 16 = assay: in vitro antiviral spectrum; type: cell-based; conditions: Enterovirus, read-out: Minimum inhibitory concentration
rhinovirus type 17 = assay: in vitro antiviral spectrum; type: cell-based; conditions: Enterovirus, read-out: Minimum inhibitory concentration
rhinovirus type 21 = assay: in vitro antiviral spectrum; type: cell-based; conditions: Enterovirus, read-out: Minimum inhibitory concentration
rhinovirus type 26 = assay: in vitro antiviral spectrum; type: cell-based; conditions: Enterovirus, read-out: Minimum inhibitory concentration
rhinovirus type 30 = assay: in vitro antiviral spectrum; type: cell-based; conditions: Enterovirus, read-out: Minimum inhibitory concentration
rhinovirus type 32 = assay: in vitro antiviral spectrum; type: cell-based; conditions: Enterovirus, read-out: Minimum inhibitory concentration
rhinovirus type 34 = assay: in vitro antiviral spectrum; type: cell-based; conditions: Enterovirus, read-out: Minimum inhibitory concentration
rhinovirus type 36 = assay: in vitro antiviral spectrum; type: cell-based; conditions: Enterovirus, read-out: Minimum inhibitory concentration
rhinovirus type 39 = assay: in vitro antiviral spectrum; type: cell-based; conditions: Enterovirus, read-out: Minimum inhibitory concentration
rhinovirus type 44 = assay: in vitro antiviral spectrum; type: cell-based; conditions: Enterovirus, read-out: Minimum inhibitory concentration
rhinovirus type 47 = assay: in vitro antiviral spectrum; type: cell-based; conditions: Enterovirus, read-out: Minimum inhibitory concentration
rhinovirus type 50 = assay: in vitro antiviral spectrum; type: cell-based; conditions: Enterovirus, read-out: Minimum inhibitory concentration
rhinovirus type 53 = assay: in vitro antiviral spectrum; type: cell-based; conditions: Enterovirus, read-out: Minimum inhibitory concentration
rhinovirus type 55 = assay: in vitro antiviral spectrum; type: cell-based; conditions: Enterovirus, read-out: Minimum inhibitory concentration
Coxsackie virus A21 = assay: in vitro antiviral spectrum; type: cell-based; conditions: read-out: Minimum inhibitory concentration
ECHO virus type 9 = assay: in vitro antiviral spectrum; type: cell-based; conditions: read-out: Minimum inhibitory concentration
ECHO virus type 11 = assay: in vitro antiviral spectrum; type: cell-based; conditions: read-out: Minimum inhibitory concentration
ECHO virus type 12 = assay: in vitro antiviral spectrum; type: cell-based; conditions: read-out: Minimum inhibitory concentration
ECHO virus type 19 = assay: in vitro antiviral spectrum; type: cell-based; conditions: read-out: Minimum inhibitory concentration
poliovirus type 1 = assay: microbe, parasite or virus in culture; type: cell-based; conditions: Enterovirus C, read-out: Minimum inhibitory concentration
[2] = system: rhinoviruses HGP, 1A and Coxsackie virus B1; assay: Inhibition of viral replication in HeLa cells; type: cell-based; conditions: concentrations of 0.5 to 2 μg/ml, HeLa cells (FIG. 1)
HeLa cell = HeLa cell growth; type: cell-based; conditions: 0.5 to 2 μg/ml
acute toxicity in mice = conditions: mouse, in vivo, day 21
Coxsackie virus B1 [3] = assay: Anti-Coxsackie virus activity, lethal infection in mice; conditions: Mus musculus, 504 h, read-out: Survival

COc1cc(O)c2c(=O)c(OC)c(-c3ccc(O)cc3)oc2c1 [4',5-dihydroxy-3,7-dimethoxyflavone]
IC50 (rhinovirus HGP): 0.1 µg/mL (≈ 0.318 µM)
IC50 (Coxsackie virus B1 [1]): 0.1 µg/mL (≈ 0.318 µM)
MIC (Coxsackie virus B1 [1]): 0.1 µg/mL (≈ 0.318 µM)
MIC (rhinovirus type 1A): 0.03 µg/mL (≈ 0.0955 µM)
MIC (rhinovirus type 2): 0.1 µg/mL (≈ 0.318 µM)
MIC (rhinovirus type 3): 0.3 µg/mL (≈ 0.955 µM)
MIC (rhinovirus type 4): 0.3 to 1 µg/mL (≈ 0.955 to 3.18 µM)
MIC (rhinovirus type 9): 0.3 µg/mL (≈ 0.955 µM)
MIC (rhinovirus type 13): 0.3 to 1 µg/mL (≈ 0.955 to 3.18 µM)
MIC (rhinovirus type 14): 0.3 µg/mL (≈ 0.955 µM)
MIC (rhinovirus type 16): 0.3 to 1 µg/mL (≈ 0.955 to 3.18 µM)
MIC (rhinovirus type 17): 0.1 µg/mL (≈ 0.318 µM)
MIC (rhinovirus type 21): 0.3 µg/mL (≈ 0.955 µM)
MIC (rhinovirus type 26): 0.3 µg/mL (≈ 0.955 µM)
MIC (rhinovirus type 30): 0.1 µg/mL (≈ 0.318 µM)
MIC (rhinovirus type 32): 0.3 µg/mL (≈ 0.955 µM)
MIC (rhinovirus type 34): 0.3 µg/mL (≈ 0.955 µM)
MIC (rhinovirus type 36): 0.3 µg/mL (≈ 0.955 µM)
MIC (rhinovirus type 39): 0.3 µg/mL (≈ 0.955 µM)
MIC (rhinovirus type 44): 0.5 µg/mL (≈ 1.59 µM)
MIC (rhinovirus type 47): 0.3 µg/mL (≈ 0.955 µM)
MIC (rhinovirus type 50): 0.3 µg/mL (≈ 0.955 µM)
MIC (rhinovirus type 53): 0.3 µg/mL (≈ 0.955 µM)
MIC (rhinovirus type 55): 0.1 to 0.3 µg/mL (≈ 0.318 to 0.955 µM)

COc1cc(O)c2c(=O)c(OC)c(-c3ccc(O)c(OC)c3)oc2c1 [4',5-dihydroxy-3,3',7-trimethoxyflavone]
IC50 (rhinovirus HGP): 0.1 µg/mL (≈ 0.29 µM)
MIC (Coxsackie virus B1 [1]; Coxsackie virus B1): 0.1 to 0.2 µg/mL (≈ 0.29 to 0.581 µM)
IC50 (Coxsackie virus B1 [1]): 0.1 to 0.2 µg/mL (≈ 0.29 to 0.581 µM)
MIC (rhinovirus type 1A; rhinovirus type 1A): 0.03 µg/mL (≈ 0.0871 µM)
MIC (rhinovirus type 2; rhinovirus type 2): 0.1 µg/mL (≈ 0.29 µM)
MIC (rhinovirus type 3; rhinovirus type 3): 0.1 µg/mL (≈ 0.29 µM)
MIC (rhinovirus type 4; rhinovirus type 4): 1 µg/mL (≈ 2.9 µM)
MIC (rhinovirus type 9; rhinovirus type 9): 0.1 µg/mL (≈ 0.29 µM)
MIC (rhinovirus type 13; rhinovirus type 13): 0.3 to 1 µg/mL (≈ 0.871 to 2.9 µM)
MIC (rhinovirus type 14; rhinovirus type 14): 0.1 µg/mL (≈ 0.29 µM)
MIC (rhinovirus type 16; rhinovirus type 16): 0.3 µg/mL (≈ 0.871 µM)
MIC (rhinovirus type 17; rhinovirus type 17): 0.3 µg/mL (≈ 0.871 µM)
MIC (rhinovirus type 21; rhinovirus type 21): 0.3 µg/mL (≈ 0.871 µM)
MIC (rhinovirus type 26; rhinovirus type 26): 0.3 µg/mL (≈ 0.871 µM)
MIC (rhinovirus type 30; rhinovirus type 30): 0.03 to 0.1 µg/mL (≈ 0.0871 to 0.29 µM)
MIC (rhinovirus type 32; rhinovirus type 32): 0.1 µg/mL (≈ 0.29 µM)
MIC (rhinovirus type 34; rhinovirus type 34): 0.3 µg/mL (≈ 0.871 µM)
MIC (rhinovirus type 36; rhinovirus type 36): 0.3 µg/mL (≈ 0.871 µM)
MIC (rhinovirus type 39; rhinovirus type 39): 0.1 µg/mL (≈ 0.29 µM)
MIC (rhinovirus type 44; rhinovirus type 44): 0.05 to 0.5 µg/mL (≈ 0.145 to 1.45 µM)
MIC (rhinovirus type 47; rhinovirus type 47): 0.3 µg/mL (≈ 0.871 µM)
MIC (rhinovirus type 50; rhinovirus type 50): 0.3 µg/mL (≈ 0.871 µM)
MIC (rhinovirus type 53; rhinovirus type 53): 0.1 µg/mL (≈ 0.29 µM)
MIC (rhinovirus type 55; rhinovirus type 55): 0.3 µg/mL (≈ 0.871 µM)
MIC (Coxsackie virus A21): 0.1 to 0.3 µg/mL (≈ 0.29 to 0.871 µM)
MIC (ECHO virus type 9): 0.1 to 0.3 µg/mL (≈ 0.29 to 0.871 µM)
MIC (ECHO virus type 11): 0.1 to 0.3 µg/mL (≈ 0.29 to 0.871 µM)
MIC (ECHO virus type 12): 0.1 to 0.3 µg/mL (≈ 0.29 to 0.871 µM)
MIC (ECHO virus type 19): 0.1 to 0.3 µg/mL (≈ 0.29 to 0.871 µM)
MIC (poliovirus type 1): 0.1 to 0.3 µg/mL (≈ 0.29 to 0.871 µM)
reduction of viral replication [2]: reduces the viral replication quite considerably
effect on HeLa cell growth (HeLa cell): HeLa cell growth is not affected
LD50 at 504 h (acute toxicity in mice; ip, single dose i.p., dissolved in dimethyl sulfoxide, read-out: LD50 i.p.): > 1000 mg/kg
LD50 at 504 h (acute toxicity in mice; po, single dose p.o., suspended in 0.5% carboxymethylcellulose, read-out: LD50 p.o.): > 5000 mg/kg
responders at 10 mg/kg (Coxsackie virus B1 [3]; ip): 10%
responders at 20 mg/kg (Coxsackie virus B1 [3]; ip): 20%
responders at 20 mg/kg (Coxsackie virus B1 [3]; po): 10%
responders at 40 mg/kg (Coxsackie virus B1 [3]; po): 30%
